# Test results reported in article PMC5679667 (PLoS ONE, 2017).
# Biological target: T1, ecAT3.10 (extracellular ATeam3.10) (Bacillus sp. PS3, UniProt P07678)
# T1 construct: gene atpC; ATeam3.10 (epsilon subunit between CFP and YFP) with N-terminal IgK leader and C-terminal PDGFR transmembrane anchor; on surface of Neuro2A cells
# Experiment: live-cell FRET/CFP ratio imaging
# Assay type: cell-based
# Settings: Neuro2A cells, continuous perfusion, pH 7.3, room temperature; printed error probably a misprint
# T1 sequence (P07678 whole entry): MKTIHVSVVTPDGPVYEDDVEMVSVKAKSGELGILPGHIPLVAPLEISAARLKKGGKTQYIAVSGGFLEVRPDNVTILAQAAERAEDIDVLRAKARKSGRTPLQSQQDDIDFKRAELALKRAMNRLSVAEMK
compound,measurement,value
Nc1ncnc2c1ncn2[C@@H]1O[C@H](COP(=O)(O)OP(=O)(O)O)[C@@H](O)[C@H]1O [ADP],fold increase in ratio signal at 100 μM,1.026 ± 1.005
